Laboratory results: the NIST ThermoML archive (doi:10.1021/acs.jced.6b00350)
“And” between values parts separate entries of the source, which are not always exact repeats. Equal entries are not always repeated.

Settings: Liquid, Hot wire method

FC(F)CC(F)(F)F [1,1,1,3,3-pentafluoropropane]
Settings | thermal conductivity
201.86 K, 21419 kPa | 0.124 W/m/K
201.86 K, 21433 kPa | 0.1239 W/m/K
201.87 K, 27158 kPa | 0.1248 W/m/K
202.1 K, 4763 kPa | 0.1206 W/m/K
202.12 K, 10088 kPa | 0.1217 W/m/K
202.12 K, 10097 kPa | 0.1218 W/m/K
202.15 K, 15804 kPa | 0.1229 W/m/K
202.15 K, 15839 kPa | 0.1229 W/m/K
202.2 K, 267 kPa | 0.1193 W/m/K
202.2 K, 275 kPa | 0.1195 W/m/K
202.2 K, 21408 kPa | 0.1237 W/m/K
202.2 K, 21420 kPa | 0.1237 W/m/K
202.21 K, 27161 kPa | 0.1249 W/m/K
202.23 K, 27677 kPa | 0.1252 W/m/K
202.24 K, 27673 kPa | 0.1255 W/m/K
202.24 K, 33666 kPa | 0.1267 W/m/K
202.24 K, 33675 kPa | 0.1266 W/m/K
202.26 K, 40147 kPa | 0.1279 W/m/K
202.26 K, 40151 kPa | 0.1278 W/m/K
202.27 K, 46773 kPa | 0.129 W/m/K
202.27 K, 46779 kPa | 0.1291 W/m/K
202.27 K, 53774 kPa | 0.1304 W/m/K
202.28 K, 53774 kPa | 0.1304 W/m/K
202.28 K, 60672 kPa | 0.1313 W/m/K
202.28 K, 60684 kPa | 0.1319 W/m/K
202.29 K, 67566 kPa | 0.1328 W/m/K
202.29 K, 67588 kPa | 0.1327 W/m/K
202.48 K, 4763 kPa | 0.1205 W/m/K
202.49 K, 10097 kPa | 0.1216 W/m/K
202.49 K, 10103 kPa | 0.1216 W/m/K
202.52 K, 15780 kPa | 0.1229 W/m/K
202.52 K, 15825 kPa | 0.1229 W/m/K
202.57 K, 21412 kPa | 0.1238 W/m/K
202.57 K, 21416 kPa | 0.1237 W/m/K
202.57 K, 27164 kPa | 0.1249 W/m/K
202.58 K, 275 kPa | 0.1195 W/m/K
202.58 K, 288 kPa | 0.1194 W/m/K
202.59 K, 27679 kPa | 0.1253 W/m/K
202.59 K, 27683 kPa | 0.1253 W/m/K
202.59 K, 33679 kPa | 0.1264 W/m/K
202.6 K, 33675 kPa | 0.1265 W/m/K
202.61 K, 40142 kPa | 0.1278 W/m/K
202.62 K, 40147 kPa | 0.1278 W/m/K
202.62 K, 46778 kPa | 0.129 W/m/K
202.62 K, 46780 kPa | 0.1289 W/m/K
202.62 K, 53770 kPa | 0.1302 W/m/K and 0.1303 W/m/K
202.63 K, 60672 kPa | 0.1318 W/m/K
202.63 K, 60673 kPa | 0.1317 W/m/K
202.63 K, 67539 kPa | 0.1325 W/m/K
202.63 K, 67552 kPa | 0.1327 W/m/K
202.89 K, 4767 kPa | 0.1203 W/m/K
202.89 K, 4772 kPa | 0.1204 W/m/K
202.9 K, 10110 kPa | 0.1216 W/m/K
202.92 K, 15810 kPa | 0.1227 W/m/K
202.92 K, 15863 kPa | 0.1227 W/m/K
202.97 K, 21416 kPa | 0.1236 W/m/K
202.97 K, 21421 kPa | 0.1236 W/m/K
202.97 K, 27152 kPa | 0.1247 W/m/K
202.97 K, 27157 kPa | 0.1247 W/m/K
202.98 K, 27682 kPa | 0.1253 W/m/K
202.98 K, 33690 kPa | 0.1266 W/m/K
202.99 K, 306 kPa | 0.1193 W/m/K
202.99 K, 337 kPa | 0.1194 W/m/K
202.99 K, 27679 kPa | 0.1252 W/m/K
202.99 K, 33685 kPa | 0.1265 W/m/K
203 K, 40148 kPa | 0.1278 W/m/K
203 K, 46783 kPa | 0.1289 W/m/K and 0.129 W/m/K
203 K, 53771 kPa | 0.1302 W/m/K
203 K, 53775 kPa | 0.1301 W/m/K
